Laboratory results from patent publication US9527856B2, “Oxindole compounds carrying a CO-bound spiro substituent and use thereof for treating vasopressin-related diseases” (AbbVie Deutschland GmbH & Co. KG, priority 2014, dated 2016).

Legend:
[1] = target: human vasopressin V1a receptor (Homo sapiens, UniProt P37288); assay: Vasopressin V1a receptor binding assay; conditions: selectivity for human V1b over human V1a, quotient of binding constants
[2] = target: T1, human vasopressin V1b receptor (Homo sapiens, UniProt P47901); assay: biochemical; conditions: Ki(h-V1b)* [nM], CHO-K1 cell membranes, displacement of 3H-AVP
T1 sequence (P47901 1-424): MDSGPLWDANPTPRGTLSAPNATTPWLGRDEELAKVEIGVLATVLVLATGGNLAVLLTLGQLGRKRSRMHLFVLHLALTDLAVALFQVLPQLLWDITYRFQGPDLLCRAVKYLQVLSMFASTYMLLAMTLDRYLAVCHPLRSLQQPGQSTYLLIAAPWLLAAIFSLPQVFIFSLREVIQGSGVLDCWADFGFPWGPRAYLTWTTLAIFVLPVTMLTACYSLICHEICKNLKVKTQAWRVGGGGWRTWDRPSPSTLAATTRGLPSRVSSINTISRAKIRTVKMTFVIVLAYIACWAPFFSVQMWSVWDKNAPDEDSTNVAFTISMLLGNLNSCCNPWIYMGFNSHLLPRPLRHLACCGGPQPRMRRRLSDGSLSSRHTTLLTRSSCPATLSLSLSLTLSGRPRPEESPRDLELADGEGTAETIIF

Chain of human vasopressin V1a receptor (P37288 whole entry): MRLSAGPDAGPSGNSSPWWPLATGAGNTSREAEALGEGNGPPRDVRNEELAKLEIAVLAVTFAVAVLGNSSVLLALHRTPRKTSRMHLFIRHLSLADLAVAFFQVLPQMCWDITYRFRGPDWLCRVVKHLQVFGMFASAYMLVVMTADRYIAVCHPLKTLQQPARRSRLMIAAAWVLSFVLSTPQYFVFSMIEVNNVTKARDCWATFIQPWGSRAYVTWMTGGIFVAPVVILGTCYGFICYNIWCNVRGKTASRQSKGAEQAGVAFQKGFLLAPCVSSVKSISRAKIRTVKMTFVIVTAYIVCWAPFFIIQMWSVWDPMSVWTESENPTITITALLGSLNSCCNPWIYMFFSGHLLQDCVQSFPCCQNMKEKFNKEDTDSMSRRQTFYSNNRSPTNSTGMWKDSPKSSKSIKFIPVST

| Ki(h-V1a)/Ki(h-V1b) [1] | Ki [2] | SMILES |
| --- | --- | --- |
| +++ (>75) | < 1 nM | CCOc1ncccc1[C@]1(NC(=O)N2CC3(CN(CCN4CCOCC4)C3)C2)C(=O)N(S(=O)(=O)c2ccc(OC)cc2OC)c2ccc(C#N)cc21 [Example 15, N-[(3S)-5-Cyano-1-(2,4-dimethoxyphenyl)sulfonyl-3-(2-ethoxy-3-pyridyl)-2-oxo-indolin-3-yl]-2-(2-morpholinoethyl)-2,6-diazaspiro[3.3]heptane-6-carboxamide] |
| ++ (25-75) | 1 to 10 nM | CCOc1ncccc1[C@]1(NC(=O)N2CC3(CN(CCN4CCOCC4)C3)C2)C(=O)N(S(=O)(=O)c2ccc(F)cc2OC)c2ccc(C#N)cc21 [Example 17, N-[(3S)-5-Cyano-3-(2-ethoxy-3-pyridyl)-1-(4-fluoro-2-methoxy-phenyl)sulfonyl-2-oxo-indolin-3-yl]-2-(2-morpholinoethyl)-2,6-diazaspiro[3.3]heptane-6-carboxamide] |
| +++ (>75) | < 1 nM | CCOc1ncccc1[C@]1(NC(=O)N2CC3(CN(CCN4CCOCC4)C3)C2)C(=O)N(S(=O)(=O)c2ccc(OC)cc2F)c2ccc(C#N)cc21 [Example 18, N-[(3S)-5-Cyano-3-(2-ethoxy-3-pyridyl)-1-(2-fluoro-4-methoxy-phenyl)sulfonyl-2-oxo-indolin-3-yl]-2-(2-morpholinoethyl)-2,6-diazaspiro[3.3]heptane-6-carboxamide] |
| +++ (>75) | 1 to 10 nM | CCOc1ncccc1[C@]1(NC(=O)N2CC3(CN(CCN4CCOCC4)C3)C2)C(=O)N(S(=O)(=O)c2ccc(OC)cc2)c2cc(F)c(C#N)cc21 [Example 19, N-[(3S)-5-Cyano-3-(2-ethoxy-3-pyridyl)-6-fluoro-1-(4-methoxyphenyl)sulfonyl-2-oxo-indolin-3-yl]-2-(2-morpholinoethyl)-2,6-diazaspiro[3.3]heptane-6-carboxamide] |
| +++ (>75) | 10 to 100 nM | CCOc1ncccc1[C@]1(NC(=O)N2CC3(CC(OCCN4CCOCC4)C3)C2)C(=O)N(S(=O)(=O)c2ccc(OC)cc2)c2ccc(C#N)cc21 [Example 21A, N-[(3S)-5-Cyano-3-(2-ethoxy-3-pyridyl)-1-(4-methoxyphenyl)sulfonyl-2-oxo-indolin-3-yl]-2-(2-morpholinoethoxy)-6-azaspiro[3.3]heptane-6-carboxamide] |
| +++ (>75) | 10 to 100 nM | CCOc1ncccc1[C@]1(NC(=O)N2CC3(C2)CN(C2CCN(C(C)C)CC2)C3)C(=O)N(S(=O)(=O)c2ccc(C#N)cc2)c2ccc(C#N)cc21 [Example 24, N-[(3S)-5-cyano-1-(4-cyanophenyl)sulfonyl-3-(2-ethoxy-3-pyridyl)-2-oxo-indolin-3-yl]-2-(1-isopropyl-4-piperidyl)-2,6-diazaspiro[3.3]heptane-6-carboxamide] |
| ++ (25-75) | 10 to 100 nM | CCOc1ncccc1[C@]1(NC(=O)N2CC3(C2)CN(C2CCN(C(C)C)CC2)C3)C(=O)N(S(=O)(=O)c2ccc(C)cc2)c2ccc(C#N)cc21 [Example 25, N-[(3S)-5-Cyano-3-(2-ethoxy-3-pyridyl)-2-oxo-1-(p-tolylsulfonyl)indolin-3-yl]-2-(1-isopropyl-4-piperidyl)-2,6-diazaspiro[3.3]heptane-6-carboxamide] |
| +++ (>75) | 10 to 100 nM | CCOc1ncccc1[C@]1(NC(=O)N2CC3(C2)CN(C2CCN(C(C)C)CC2)C3)C(=O)N(S(=O)(=O)c2ccc(F)cc2)c2ccc(C#N)cc21 [Example 27, N-[(3S)-5-Cyano-3-(2-ethoxy-3-pyridyl)-1-(4-fluorophenyl)sulfonyl-2-oxo-indolin-3-yl]-2-(1-isopropyl-4-piperidyl)-2,6-diazaspiro[3.3]heptane-6-carboxamide] |
| +++ (>75) | 1 to 10 nM | CCOc1ncccc1[C@]1(NC(=O)N2CC3(C2)CN(C2CCN(C(C)C)CC2)C3)C(=O)N(S(=O)(=O)c2ccc(OC)cc2)c2ccc(C#N)cc21 [Example 29, N-[(3S)-5-Cyano-3-(2-ethoxy-3-pyridyl)-1-(4-methoxyphenyl)sulfonyl-2-oxo-indolin-3-yl]-2-(1-isopropyl-4-piperidyl)-2,6-diazaspiro[3.3]heptane-6-carboxamide] |
| ++ (25-75) | 10 to 100 nM | CCOc1ncccc1[C@]1(NC(=O)N2CC3(C2)CN(C2CCN(C)CC2)C3)C(=O)N(S(=O)(=O)c2ccccc2OC)c2ccc(C#N)cc21 [Example 32, N-[(3S)-5-Cyano-3-(2-ethoxy-3-pyridyl)-1-(2-methoxyphenyl)sulfonyl-2-oxo-indolin-3-yl]-2-(1-methyl-4-piperidyl)-2,6-diazaspiro[3.3]heptane-6-carboxamide] |
| ++ (25-75) | 10 to 100 nM | CCOc1ncccc1[C@]1(NC(=O)N2CC3(C2)CN(C2CCN(C)CC2)C3)C(=O)N(S(=O)(=O)c2ccc(OC)cc2)c2ccc(C#N)cc21 [Example 33, N-[(3S)-5-Cyano-3-(2-ethoxy-3-pyridyl)-1-(4-methoxyphenyl)sulfonyl-2-oxo-indolin-3-yl]-2-(1-methyl-4-piperidyl)-2,6-diazaspiro[3.3]heptane-6-carboxamide] |
| ++ (25-75) | 10 to 100 nM | CCOc1ccccc1[C@]1(NC(=O)N2CC3(C2)CN(C2CCN(C4COC4)CC2)C3)C(=O)N(S(=O)(=O)c2ccc(OC)cc2)c2ccc(C#N)cc21.O=C(O)C(F)(F)F [Example 35B, N-[(3S)-5-Cyano-3-(2-ethoxyphenyl)-1-(4-methoxyphenyl)sulfonyl-2-oxo-indolin-3-yl]-2-[1-(oxetan-3-yl)-4-piperidyl]-2,6-diazaspiro[3.3]heptane-6-carboxamide; 2,2,2-trifluoroacetic acid] |
| ++ (25-75) | 10 to 100 nM | CCOc1ccccc1[C@]1(NC(=O)N2CC3(C2)CN(C2CCN(C)CC2)C3)C(=O)N(S(=O)(=O)c2ccc(OC)cc2OC)c2ccc(C#N)cc21 [Example 39B, N-[(3S)-5-Cyano-1-(2,4-dimethoxyphenyl)sulfonyl-3-(2-ethoxyphenyl)-2-oxo-indolin-3-yl]-2-(1-methyl-4-piperidyl)-2,6-diazaspiro[3.3]heptane-6-carboxamide] |
| +++ (>75) | 1 to 10 nM | CCOc1ccccc1[C@]1(NC(=O)N2CC3(C2)CN(C2CCN(C(C)C)CC2)C3)C(=O)N(S(=O)(=O)c2ccc(OC)cc2)c2ccc(C#N)cc21 [Example 40, N-[(3S)-5-Cyano-3-(2-ethoxyphenyl)-1-(4-methoxyphenyl)sulfonyl-2-oxo-indolin-3-yl]-2-(1-isopropyl-4-piperidyl)-2,6-diazaspiro[3.3]heptane-6-carboxamide] |
| +++ (>75) | 10 to 100 nM | CCOc1ccccc1[C@]1(NC(=O)N2CC3(C2)CN(C2CCN(C(C)C)CC2)C3)C(=O)N(S(=O)(=O)c2ccc(C)cc2)c2ccc(C#N)cc21 [Example 41, N-[(3S)-5-Cyano-3-(2-ethoxyphenyl)-2-oxo-1-(p-tolylsulfonyl)indolin-3-yl]-2-(1-isopropyl-4-piperidyl)-2,6-diazaspiro[3.3]heptane-6-carboxamide] |
| +++ (>75) | 10 to 100 nM | CCOc1ccccc1[C@]1(NC(=O)N2CC3(C2)CN(C2CCN(C(C)C)CC2)C3)C(=O)N(S(=O)(=O)c2ccc(C#N)cc2)c2ccc(C#N)cc21 [Example 42, N-[(3S)-5-Cyano-1-(4-cyanophenyl)sulfonyl-3-(2-ethoxyphenyl)-2-oxo-indolin-3-yl]-2-(1-isopropyl-4-piperidyl)-2,6-diazaspiro[3.3]heptane-6-carboxamide] |
| +++ (>75) | 10 to 100 nM | CCOc1ccccc1[C@]1(NC(=O)N2CC3(C2)CN(C2CCN(C(C)C)CC2)C3)C(=O)N(S(=O)(=O)c2ccc(F)cc2)c2ccc(C#N)cc21.O=C(O)C(F)(F)F [Example 43B, N-[(3S)-5-Cyano-3-(2-ethoxyphenyl)-1-(4-fluorophenyl)sulfonyl-2-oxo-indolin-3-yl]-2-(1-isopropyl-4-piperidyl)-2,6-diazaspiro[3.3]heptane-6-carboxamide; 2,2,2-trifluoroacetic acid] |
| + (10-<25) | 10 to 100 nM | CCOc1ncccc1[C@]1(NC(=O)C2CC3(C2)CN(C2CCN(C(C)C)CC2)C3)C(=O)N(S(=O)(=O)c2ccc(OC)cc2)c2ccc(C#N)cc21 [Example 45, N-[(3S)-5-Cyano-3-(2-ethoxy-3-pyridyl)-1-(4-methoxyphenyl)sulfonyl-2-oxo-indolin-3-yl]-6-(1-isopropyl-4-piperidyl)-6-azaspiro[3.3]heptane-2-carboxamide] |
| + (10-<25) | 1 to 10 nM | CCOc1ncccc1[C@]1(NC(=O)C2CC3(C2)CN(C2CN(C)C2)C3)C(=O)N(S(=O)(=O)c2ccc(OC)cc2)c2ccc(C#N)cc21 [Example 46, N-[(3S)-5-Cyano-3-(2-ethoxy-3-pyridyl)-1-(4-methoxyphenyl)sulfonyl-2-oxo-indolin-3-yl]-6-(1-methylazetidin-3-yl)-6-azaspiro[3.3]heptane-2-carboxamide] |
| ++ (25-75) | 10 to 100 nM | CCOc1ncccc1C1(NC(=O)N2CC3(CNC3)C2)C(=O)N(S(=O)(=O)c2ccc(OC)cc2OC)c2ccc(C#N)cc21.O=C(O)C(F)(F)F (stereo not shown) [Example 58, N-(5-Cyano-1-(2,4-dimethoxyphenylsulfonyl)-3-(2-ethoxypyridin-3-yl)-2-oxoindolin-3-yl)-2,6-diazaspiro[3.3]heptane-2-carboxamide 2,2,2-trifluoroacetate] |
